{"source": "paper PMC3827205", "about": "“Discovery and Characterization of a Novel Cyclic Peptide That Effectively Inhibits Ephrin Binding to the EphA4 Receptor and Displays Anti-Angiogenesis Activity” (PLoS ONE, 2013)", "key": {"[1]": {"molecular_target": "T1, EphA4 Fc Chimera protein / ephrinA5 (Mus musculus, UniProt Q03137)", "T1 construct": "using the immobilized EphA4 extracellular domain fused to human Fc; purchased R&D Systems, Minneapolis, MN", "T1 sequence (Q03137 20-547 limits assumed, stated change not applied)": "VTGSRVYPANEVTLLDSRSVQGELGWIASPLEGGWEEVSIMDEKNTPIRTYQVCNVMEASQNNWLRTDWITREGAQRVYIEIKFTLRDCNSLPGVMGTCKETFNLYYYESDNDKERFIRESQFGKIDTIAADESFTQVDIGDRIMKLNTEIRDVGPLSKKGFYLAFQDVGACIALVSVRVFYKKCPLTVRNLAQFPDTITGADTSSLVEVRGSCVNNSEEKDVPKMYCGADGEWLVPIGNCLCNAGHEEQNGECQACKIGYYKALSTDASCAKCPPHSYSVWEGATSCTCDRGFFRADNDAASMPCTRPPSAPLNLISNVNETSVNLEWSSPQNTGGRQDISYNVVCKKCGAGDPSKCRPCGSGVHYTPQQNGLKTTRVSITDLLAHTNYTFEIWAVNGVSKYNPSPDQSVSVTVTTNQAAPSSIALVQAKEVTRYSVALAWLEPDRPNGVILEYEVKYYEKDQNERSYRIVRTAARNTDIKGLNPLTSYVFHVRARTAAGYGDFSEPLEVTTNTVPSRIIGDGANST", "assay": "ELISA-based binding assay: inhibition of ephrinA5 AP binding to immobilized EphA4 Fc", "type": "biochemical", "experimental": "For Eph receptor binding studies, 50 μl of ephrin A5 (5 μg/ml, kindly provided by Dr. Elena B. Pasquale, Sanford-Burnham Medical Research Institute) was coated onto each well on a 96-well ELISA plate (Corning, #3690) overnight at 4°C. The wells were blocked with 100 μl blocking buffer (Pierce, #37543) for 1 h and then rinsed with PBS. A 1 μg of recombinant mouse EphA4 Fc Chimera protein (R&D Systems, Minneapolis, MN) in EIA buffer (1% BSA, 0.05% Tween 20 in TBS) was then incubated in each well for 1.5 h at room temperature. The EphA4 Fc-coated wells were rinsed with PBS buffer and incubated for 1.5 h with different peptide concentrations and same amount of alkaline phosphatase (AP)-tagged ephrin A5 in a total volume of 50 μl. After the unbound peptide and ephrin had been washed away, bound ephrin-A5 AP was quantified using p-nitrophenylphosphate as a substrate by a Synergy2 reader (BioTek, Winooski, VT) with wavelength of 405 nm. Data were fitted using nonlinear regression. IC50 values were calculated using Prism (GraphPad Software Inc.)."}, "[2]": {"system": "EphA4", "conditions": "ref [25]; cited from earlier work", "from_the_text": "A promising strategy for anti-angiogenic cancer therapies is to antagonize Eph-ephrin interactions by interfering with the Eph receptor/ephrin system. Several different synthetic peptides and small molecules have been studied for this purpose; the advantage of these artificial ligands is that they can show a much higher selectivity compared to the physiological ephrin ligands."}, "[3]": {"system": "HUVEC", "assay": "HUVEC viability assay (CellTiter-Blue)", "type": "cell-based, human", "conditions": "for cytotoxic effects on HUVECs: 48 h, 37°C, CellTiter-Blue, fluorescence 540Ex/600Em, at least three independent experiments", "experimental": "The cytotoxic effects of the TYY cyclic peptide were measured at different concentrations by plating 1×10^4 HUVEC cells (ATCC) per well in 96-well plates and determining cell survival. Cells were treated with various concentrations of TYY (10 μM and 20 μM) and incubated in an incubator with a 5% CO2 and 95% humidity atmosphere at 37°C for 24 h and 48 h. After incubation, cell viability was measured using a CellTiter-Blue assay kit (Promega) according to the manufacturer’s instructions. Briefly, 20 μl of CellTiter-Blue reagent was added to 100 μl of culture media and cells were incubated for 2-4 hours at 37°C. Afterward, fluorescence at 540Ex/600Em was measured using a fluorescence plate reader (BioTek, Synergy 2). Each experimental data point was generated from at least three independent experiments.\nFigure 3 Effects of the TYY cyclic peptide on viability of HUVEC cells. The HUVECs were treated with the indicated concentrations of the TYY peptide. A 0.1% DMSO control was used because the highest concentration of the DMSO vehicle in the TYY solutions was 0.1%. The cell viability was determined by CellTiter-Blue assays 24 h and 48 h after addition of TYY. Each experimental data point was generated from at least three independent experiments."}, "[4]": {"system": "EphA4 Fc", "assay": "Phage binding assay (phage-displayed peptide on EphA4 Fc)", "set-up": "species or system mouse", "conditions": "4 μg/ml EphA4 Fc coating, room temperature, 2 h, HRP-anti-M13, ABTS, 405 nm, versus BSA control", "experimental": "A pre-made library consisting of a disulfide-constrained nonapeptide (Ph.D.-C7C) library (New England Biolabs, Beverly, MA) was used for panning on EphA4. Recombinant mouse EphA4 Fc Chimera protein (R&D Systems, Minneapolis, MN) was incubated overnight at 4°C in 96-well ELISA plate wells at concentrations of 10 μg/ml in coating buffer (0.1 M NaHCO3). Wells were blocked for 1 h with blocking buffer (0.1 M NaHCO3, 5 mg/ml BSA, 0.02%NaN3), and rinsed with TBST (0.1% Tween20 in TBS). In round 1 of panning, 5×10^10 plaque-forming units (PFUs) of the phage library in 100 μl TBST were incubated for 1h at room temperature in EphA4 receptor-coated wells. After washing, the remaining bound phage were eluted with 100 μl of 0.2 M glycine-HCl (pH 2.2), and then neutralized by 15 μl 1M Tris-HCl (pH9.1). The entire eluate was used to infect early-log phase ER2738 host bacteria and amplified (4.5 h, 37 °C). The phage were concentrated and stored according to the manufacturer’s recommendations. In rounds 2, 3, and 4, we added 4.9×10^10, 1.81×10^11, 1.95×10^11 PFUs of the amplified phage pool from the previous round, respectively, to an EphA4 Fc-coated well and a BSA coated well. The phages were panned as described for round 1, except eluted phages were tittered prior to amplification to assess enrichment.\nPhages binding to EphA4 receptor-coated plates were quantified using an anti-phage antibody conjugated to horseradish peroxidase (M13 phage detection kit, Amersham Pharmacia Biotech, Piscataway, NJ) with 2,2-azino-bis(3-ethylbenzthiazoline-6-sulfonic acid) as substrate. A 50 μl of 4 μg/ml EphA4 Fc or 5 mg/ml BSA (as a negative control) in coating buffer (0.1 M NaHCO3) was incubated overnight at 4°C in 96-well ELISA plate wells. Wells were blocked for 30 minutes with blocking buffer, and rinsed with TBST. A 50 μl of amplified phage was added to each well and incubated at room temperature for 2 h. […] Absorbance of each well was read at 405 nm with a Synergy 2 reader (BioTek, Synergy 2). […]"}}, "note": "Several values for one entry are separate records, joined by “and”; a condition that tells them apart may be missing. Identical values can stand only once. Positions of bridges follow the written chain, without caps; N, C: chain ends. Residues, ends and D or L forms follow the SMILES beside them. No end group written: not given here."}
{"compound": "KYLPYWPVLSSL [linear 12-residue KYL peptide (…), positive control, reference compound]", "values": [{"measurement": "inhibition of EphA4-ephrinA5 binding", "setting": "[1]; 25 μM, positive control, ELISA, 1.5 h, three independent measurements", "result": 92, "unit": "%"}, {"measurement": "artificial ligand of EphA4", "setting": "[2]", "result": "act as artificial ligands"}]}
{"compound": "CC(C)C[C@@H]1NC(=O)[C@@H]2CCCN2C(=O)[C@H](Cc2c[nH]c3ccccc23)NC(=O)[C@H](Cc2ccc(O)cc2)NC(=O)[C@H](Cc2ccc(O)cc2)NC(=O)[C@H]([C@@H](C)O)NC(=O)[C@@H](N)CSSC[C@@H](C(N)=O)NC(=O)[C@@H]2CCCN2C1=O", "note": "[TYY] (H-CTYYWPLPC-NH2; disulfide 1-9)", "values": [{"measurement": "inhibition of EphA4-ephrinA5 binding", "setting": "[1]; 100 nM peptide, ELISA, 1.5 h, three independent measurements", "result": 24.8, "unit": "%"}, {"measurement": "inhibition of EphA4-ephrinA5 binding", "setting": "[1]; 100 μM peptide, ELISA, 1.5 h, three independent measurements", "result": "94.06% and 94%"}, {"measurement": "IC50", "setting": "[1]; ELISA, ephrin A5-coated plate, EphA4 Fc, AP-tagged ephrin A5, 1.5 h incubation, p-nitrophenylphosphate, 405 nm, nonlinear regression (Prism), three independent measurements", "result": 11.7, "unit": "µM"}, {"measurement": "cytotoxic effects on HUVECs", "setting": "[3]; 10 μM", "result": "no cytotoxic effects on HUVECs"}, {"measurement": "cytotoxic effects on HUVECs", "setting": "[3]; 20 μM", "result": "no cytotoxic effects on HUVECs"}, {"measurement": "cytotoxic effects in HUVECs", "setting": "[3]; concentrations up to 20 μM", "result": "no cytotoxic effects in the HUVECs"}]}
{"compound": "CLMTSQFRC (disulfide 1-9) [cyclic nonapeptide c[…] from M13 phage display library, tested on phage]", "values": [{"measurement": "binding of phage clones to EphA4 Fc", "setting": "[4]", "result": "significant binding"}]}
{"compound": "CSWYWPLPC (disulfide 1-9) [disulfide-constrained cyclic nonapeptide c[…] from M13 phage display library]", "values": [{"measurement": "inhibition of ephrin A5 binding to EphA4", "setting": "[1]; 50 μM peptide, ELISA, 1.5 h", "result": 40, "unit": "%"}, {"measurement": "inhibition of EphA4 binding with AP-tagged ephrinA5 (in words)", "setting": "[1]; dose dependence", "result": "dose-dependent inhibition"}, {"measurement": "binding of phage clones to EphA4 Fc", "setting": "[4]", "result": "significant binding"}]}
{"compound": "CWPIKVGWC (disulfide 1-9) [cyclic nonapeptide c[…] from M13 phage display library, tested on phage]", "values": [{"measurement": "binding of phage clones to EphA4 Fc", "setting": "[4]", "result": "significant binding"}]}
